A short description of data set [1]: In vivo disappearance of GLP-1. The arrangement: species or system male C57Bl6/JRj mice. As to conditions: 800 fmol i.v. tail vein; sitagliptin 10 mg/kg oral 30 min before; Alpco kit; n=5.
Data set [2] is described as follows: In vivo disappearance of GLP-1. The arrangement: species or system male C57Bl6/JRj mice. Particulars: 800 fmol into vena cava, n=4.
The conditions of data set [3]: estimated, after secretion; ref [2]; cited from earlier work.
Data set [4] deals with intact GLP-1. The data set is classed as in vivo, male C57Bl/6JRj mice.
For data set [5], the system named is blood glucose. Briefly: Blood glucose during OGTT with in vivo enzyme inhibition. Also noted: species or system male C57Bl/6JRj mice. Particulars: valine pyrrolidide only, mean [95% CI], p=0.0023.
For data set [6] the following is noted: in humans; background statement, no reference given; cited from earlier work.

The source of these data is paper doi:10.1101/2023.10.19.563029v1 (bioRxiv, 2023).

Where no end group is shown, it is not given here.

For the compound `CC[C@H](C)[C@H](NC(=O)[C@H](Cc1ccccc1)NC(=O)[C@H](CCC(=O)O)NC(=O)[C@H](CCCCN)NC(=O)[C@H](C)NC(=O)[C@H](C)NC(=O)[C@H](CCC(N)=O)NC(=O)CNC(=O)[C@H](CCC(=O)O)NC(=O)[C@H](CC(C)C)NC(=O)[C@H](Cc1ccc(O)cc1)NC(=O)[C@H](CO)NC(=O)[C@H](CO)NC(=O)[C@@H](NC(=O)[C@H](CC(=O)O)NC(=O)[C@H](CO)NC(=O)[C@@H](NC(=O)[C@H](Cc1ccccc1)NC(=O)[C@@H](NC(=O)CNC(=O)[C@H](CCC(=O)O)NC(=O)[C@H](C)NC(=O)[C@@H](N)Cc1c[nH]cn1)[C@@H](C)O)[C@@H](C)O)C(C)C)C(=O)N[C@@H](C)C(=O)N[C@@H](Cc1c[nH]c2ccccc12)C(=O)N[C@@H](CC(C)C)C(=O)N[C@H](C(=O)N[C@@H](CCCCN)C(=O)NCC(=O)N[C@@H](CCCNC(=N)N)C(N)=O)C(C)C` [GLP-1(7–36)NH2], the “calculated half-life, sitagliptin” value in data set [1] was 1.53 min. Also, the “half-life, control” value in data set [2] (isoflurane-sedated mice, no inhibitors) stood at 0.79 min. Moreover, the “half-life, sitagliptin” value in data set [2] (isoflurane-sedated mice, sitagliptin 30 min before) was determined as 1.35 min. Besides, in data set [2] (sitagliptin 30 min before), the “initial peak plasma value, sitagliptin only” value was about 50 pmol/L. Moreover, the “share of intact GLP-1 that reaches the systemic circulation” value in data set [3] was 7-8%.
With `CCOC(=O)[C@H](C)C[C@@H](Cc1ccc(-c2ccccc2)cc1)NC(=O)CCC(=O)O` [sacubitril], in data set [4] (sacubitril alone, oral 0.3 mg/kg, 30 min before OGTT, mean [95% CI], p>0.99, n=6), the “difference in AUC of intact GLP-1 versus control” value is 4.0 pmol/L/min.
Turning to `N[C@@H](CC(=O)N1CCn2c(nnc2C(F)(F)F)C1)Cc1cc(F)c(F)cc1F` [sitagliptin, Sitagliptin], in data set [4] (oral sitagliptin 10 mg/kg 30 min before OGTT, Alpco kit, mean ± SD, n=6, SD), the “intact GLP-1 level after the OGTT, at 5 minutes” value turned out to be 10.9 ± 3.9 pmol/L.
On to `CC(C)[C@H](N)C(=O)N1CCCC1` [valine pyrrolidide], for which the “intact GLP-1 level after the OGTT” value in data set [4] (i.p. valine pyrrolidide 15 mg/kg 30 min before OGTT, Alpco kit, mean ± SD, n=5, SD) came to 5.1 ± 0.9 pmol/L. Besides, in data set [4] (oral valine pyrrolidide 20.6 mg/kg 30 min before OGTT, Alpco kit, mean ± SD, n=5, SD), the “intact GLP-1 level after the OGTT, at 10 minutes” value was 9.2 ± 6.3 pmol/L. Moreover, the “suppression in the rise of glucose at 20 minutes (difference versus control)” value in data set [5] was -6.2 mmol/L.
Take “GLP-1(9–36)NH2 (EGTFTSDVSSYLEGQAAKEFIAWLVKGR-NH2; UniProt P01275 100-127, looked up, fragment)”: the plasma half-life entry in data set [6] is on record as “about 5 min”.
